# According to PubChem BioAssay AID214 (DTP/NCI, 2004):
# Results filed as inconclusive are left out.
# System: B6C3F1 mice, colon carcinoma 38 s.c., T/C
# Experiment: NCI In Vivo Anticancer Drug Screen. Data for tumor model Colon Carcinoma 38 (subcutaneous) in B6C3F1 mice
# Conditions: endpoint: median tumor weight (est.), schedule: Q07DX002 (ip), vehicle: saline + alcohol, higher = larger tumour
# Experimental: The antitumor activity of compounds was measured in mice bearing transplantable tumors. Survival or tumor size were measured and the results are expressed as the measurement made in the treated group (T) divided by the measurement made in the vehicle treated control group (C). The tumor model used in this assay is Colon Carcinoma 38 (subcutaneous) in B6C3F1 mice
smiles,measurement,setting,value
C[C@@]1(CO)[C@H](O)CC[C@@]2(C)[C@H]1CC[C@H]1C[C@@H]3C[C@@]12CC[C@@]3(O)COC(=O)CN,T/C,dose: 0.4 mg/kg/injection,61 % of control
same,T/C,dose: 0.8 mg/kg/injection,88 % of control
same,T/C,dose: 1.6 mg/kg/injection,54 % of control
same,T/C,dose: 3.2 mg/kg/injection,63 % of control
same,T/C,dose: 6.4 mg/kg/injection,106 % of control
